In patent US11578083B2, “Pyrimidinium compounds and their mixtures for combating animal pests” (BASF SE, priority 2017, dated 2023):

Experiments:
Type in all cases: in vivo
[1] = test system: green peach aphid (Myzus persicae); assay: Test 2 green peach aphid, artificial diet (mixtures)
Text: (§1) For evaluating control of green peach aphid (Myzus persicae) through systemic means the test unit consisted of 96-well-microtiter plates containing liquid artificial diet under an artificial membrane.
(§2) The compounds or mixtures were formulated using a solution containing 75% water and 25% DMSO. Concentrations of formulated compounds or mixtures were pipetted into the aphid diet, using a custom built pipetter, at two replications.
(§3) For experimental mixtures in these tests identical volumes of both mixing partners at the desired concentrations respectively, were mixed together.
(§4) After application, 5-8 adult aphids were placed on the artificial membrane inside the microtiter plate wells. The aphids were then allowed to suck on the treated aphid diet and incubated at 23±1° C., 50±5% RH for 3 days. Aphid mortality and fecundity was then visually assessed.

[2] = test system: yellow fever mosquito (Aedes aegypti); details: Table 12; Yellow Fever Mosquito; solo application I-R-1, use rate 10 ppm
Procedure: For evaluating control of yellow fever mosquito (Aedes aegypti) the test unit consisted of 96-well-microtiter plates containing 200 μl of tap water per well and 5-15 freshly hatched A. aegypti larvae.
(§5) The compounds or mixtures were formulated using a solution containing 75% water and 25% DMSO. Different concentrations of formulated compounds or mixtures were sprayed onto the insect diet at 2.5 μl, using a custom built micro atomizer, at two replications.
as §3
After application, microtiter plates were incubated at 28±1° C., 80±5% RH for 2 days. Larval mortality was then visually assessed.

Chilo suppressalis [3] = assay: B.3c Rice striped stem borer, drench application; details: Chilo suppressalis neonates, Dose 10 mg, 14 DAT
Text: The test solution was poured onto the soil of each potted rice plant (=replicate) with five tillers each pot. After drench application, treated plants were transferred inside the screenhouse for three days prior to stemborer inoculation inside the laboratory. Three days after drench application, 5 to 6-day old egg masses of CHILSU were used for inoculation. All stemborer-infested potted rice plants were transferred inside the screenhouse 1 day after inoculation until the final assessment. […] Whole plant damage was assessed before cutting each hill at the basal portion for tiller dissection. Each dissected tiller was inspected looking for dead (if possible) and alive stemborer larvae.

[4] = test system: green peach aphid (Myzus persicae); assay: Test 8 green peach aphid, artificial diet (mixtures)
Text: as §1, §2, §3, §4

Chilo suppressalis [5] = assay: B.3b Rice striped stem borer, foliar spraying
Procedure: All three pots (=replicates) of four to five-week old potted rice per treatment were simultaneously sprayed with 12 mL test solution. After spray application, plants were air dried in the laboratory before inoculation. After air-drying, 5 to 6-day old egg masses of CHILSU were used for inoculation. All stem borer-infested potted rice plants were transferred inside the screenhouse 1 day after inoculation until the final assessment. […] Whole plant damage was assessed before cutting each hill at the basal portion for tiller dissection. Each dissected tiller was inspected looking for dead (if possible) and alive stemborer larvae.

[6] = test system: boll weevil (Anthonomus grandis); assay: Test 3 boll weevil, insect diet with eggs (mixtures)
Procedure: For evaluating control of boll weevil (Anthonomus grandis) the test unit consisted of 24-well-microtiter plates containing an insect diet and 20-30 A. grandis eggs.
The compounds or mixtures were formulated using a solution containing 75% water and 25% DMSO. Concentrations of formulated compounds or mixtures were sprayed onto the insect diet at 20 μl, using a custom built micro atomizer, at two replications.
as §3
After application, microtiter plates were incubated at 23±1° C., 50±5% RH for 5 days. Egg and larval mortality was then visually assessed.

[7] = test system: vetch aphid (Megoura viciae); assay: Test 1 vetch aphid, leaf disks (mixtures); details: Table 1, solo application I-R-1, use rate 20 ppm
Text: Synergism can be described as an interaction where the combined effect of two or more compounds is greater than the sum of the individual effects of each of the compounds. The presence of a synergistic effect in terms of percent control, between two mixing partners (X and Y) can be calculated using the Colby equation (Colby, S. R., 1967, Calculating Synergistic and Antagonistic Responses in Herbicide Combinations, Weeds, 15, 20-22):
When the observed combined control effect is greater than the expected combined control effect (E), then the combined effect is synergistic.
The analysis of synergism or antagonism between the mixtures or compositions was determined using Colby's equation.
For evaluating control of vetch aphid (Megoura viciae) through contact or systemic means the test unit consisted of 24-well-microtiter plates containing broad bean leaf disks.
The compounds or mixtures were formulated using a solution containing 75% water and 25% DMSO. Concentrations of formulated compounds or mixtures were sprayed onto the leaf disks at 2.5 μl, using a custom built micro atomizer, at two replications. […]
After application, the leaf disks were air-dried and 5-8 adult aphids placed on the leaf disks inside the microtiter plate wells. […] Aphid mortality and fecundity was then visually assessed.

[8] = test system: tobacco budworm (Heliothis virescens); assay: Test 4 tobacco budworm, insect diet with eggs (mixtures)
Procedure: For evaluating control of tobacco budworm (Heliothis virescens) the test unit consisted of 96-well-microtiter plates containing an insect diet and 15-25 H. virescens eggs.
The compounds or mixtures were formulated using a solution containing 75% water and 25% DMSO. Concentrations of formulated compounds or mixtures were sprayed onto the insect diet at 10 μl, using a custom built micro atomizer, at two replications.
as §3
After application, microtiter plates were incubated at 28±1° C., 80±5% RH for 5 days. Egg and larval mortality was then visually assessed.

[9] = test system: Greenhouse Whitefly (Trialeurodes vaporariorum); assay: Test 11 Greenhouse Whitefly, egg plant leaf disk (mixtures)
Procedure: For evaluating control of Greenhouse Whitefly (Trialeurodes vaporariorum) the test unit consisted of 96-well-microtiter plates containing a leaf disk of egg plant leaf disk with white fly eggs.
as §5, §3
After application, microtiter plates were incubated at 23±1° C., 65±5% RH for 6 days. Mortality of hatched crawlers was then visually assessed.

[10] = test system: Rice brown plant hopper (Nilaparvata lugens); assay: B.2 Rice brown plant hopper, sprayed rice seedlings; details: 72 h
Procedure: B.2 Rice Brown Plant Hopper (Nilaparvata lugens):
Rice seedlings are cleaned and washed 24 hours before spraying. The active compounds are formulated in 50:50 acetone:water (vol:vol) and 0.1% vol/vol surfactant (EL 620) is added. Potted rice seedlings are sprayed with 5 ml test solution, air dried, placed in cages and inoculated with 10 adults. Treated rice plants are kept at about 28-29° C. and relative humidity of about 50-60%. Percent mortality is recorded after 72 hours.

C[n+]1c([O-])c(-c2ccccc2)c(=O)n2c1SC[C@@H]2c1cnc(Cl)s1 [I-R-1, (3R)-3-(2-chlorothiazol-5-yl)-8-methyl-7-oxo-6-phenyl-2,3-dihydrothiazolo[3,2-a]pyrimidin-4-ium-5-olate]
Average control % ([1]; Table 2.1, solo application I-R-1, use rate 2 ppm): 25%
Average control % ([1]; Table 2.2, solo application I-R-1, use rate 2 ppm): 0%
Average control % ([1]; Table 2.3, solo application I-R-1, use rate 0.4 ppm): 50%
Average control % ([1]; Table 2.4, solo application I-R-1, use rate 50 ppm): 0%
Average control % ([1]; Table 2.5, solo application I-R-1, use rate 2 ppm): 50%
Average control % ([1]; Table 2.6, solo application I-R-1, use rate 2 ppm): 25%
Average control % [2]: 0%
Feeding damage (%) (Chilo suppressalis [3]): 7%
Average control % ([4]; Table 8.1, solo application I-R-1, use rate 0.4 ppm): 0%
Average control % ([4]; Table 8.2, solo application I-R-1, use rate 0.4 ppm): 0%
Feeding damage (%) (Chilo suppressalis [5]; Chilo suppressalis neonates, foliar spraying, Dose 200 ppm, 14 DAT): 7%
mortality at 200 ppm (Chilo suppressalis [5]; Chilo suppressalis, foliar, 336 h): 99%
Average control % ([6]; Table 3.1, solo application I-R-1, use rate 50 ppm): 0%
Average control % ([6]; Table 3.2, solo application I-R-1, use rate 2 ppm): 0%
Average control % ([6]; Table 3.3, solo application I-R-1, use rate 2 ppm): 0%
Average control % [7]: 0%
Average control % ([8]; Table 4.1, solo application I-R-1, use rate 10 ppm): 0%
Average control % ([8]; Table 4.2, solo application I-R-1, use rate 0.4 ppm): 0%
Average control % ([9]; Table 11.1, solo application I-R-1, use rate 50 ppm): 25%
Average control % ([9]; Table 11.2, solo application I-R-1, use rate 10 ppm): 0%
mortality at 1 ppm [10]: 90%
